pIC50: −log10 of the molar value.
How the values were obtained:
[1] = biological target: T1, Bone morphogenetic protein 1 (Homo sapiens, UniProt P13497); test: Inhibition of C-terminal FLAG-6x-His epitope tagged and N-terminal human RAGE signal sequence tagged human BMP1 (23 to 721 amino acids) expressed in CHO-E1 cells pre-incubated for 10 mins before promyostatin peptide substrate addition and measured after 30 mins using 50 nM BMP1 by FRET based assay; format: cell-based
T1 sequence (P13497 whole entry): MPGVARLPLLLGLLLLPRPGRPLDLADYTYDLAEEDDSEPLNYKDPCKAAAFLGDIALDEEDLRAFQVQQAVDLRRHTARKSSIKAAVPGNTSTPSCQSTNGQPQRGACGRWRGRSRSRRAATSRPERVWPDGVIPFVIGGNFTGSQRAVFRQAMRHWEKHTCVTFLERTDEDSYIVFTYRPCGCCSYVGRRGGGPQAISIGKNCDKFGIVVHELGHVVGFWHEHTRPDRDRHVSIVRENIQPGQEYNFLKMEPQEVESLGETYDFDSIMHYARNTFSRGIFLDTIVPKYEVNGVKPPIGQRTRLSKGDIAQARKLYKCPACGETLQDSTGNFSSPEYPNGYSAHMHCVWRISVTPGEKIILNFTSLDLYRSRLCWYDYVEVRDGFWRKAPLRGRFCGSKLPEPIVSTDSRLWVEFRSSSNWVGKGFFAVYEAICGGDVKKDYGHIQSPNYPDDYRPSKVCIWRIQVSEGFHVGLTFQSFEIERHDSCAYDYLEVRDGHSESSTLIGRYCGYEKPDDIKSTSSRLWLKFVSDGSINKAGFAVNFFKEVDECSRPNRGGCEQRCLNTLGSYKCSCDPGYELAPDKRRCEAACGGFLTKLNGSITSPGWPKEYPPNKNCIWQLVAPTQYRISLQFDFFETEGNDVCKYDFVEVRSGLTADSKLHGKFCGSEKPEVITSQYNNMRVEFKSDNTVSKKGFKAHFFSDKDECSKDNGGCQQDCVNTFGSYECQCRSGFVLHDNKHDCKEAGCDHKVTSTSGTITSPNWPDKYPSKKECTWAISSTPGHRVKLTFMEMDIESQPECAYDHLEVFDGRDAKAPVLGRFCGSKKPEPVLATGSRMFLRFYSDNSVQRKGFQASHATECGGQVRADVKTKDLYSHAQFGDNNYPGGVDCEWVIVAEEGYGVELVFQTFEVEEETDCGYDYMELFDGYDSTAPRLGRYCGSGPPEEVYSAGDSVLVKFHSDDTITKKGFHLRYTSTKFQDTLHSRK

[2] = biological target: T1, Bone morphogenetic protein 1; test: Inhibition of C-terminal FLAG-6x-His epitope tagged and N-terminal human RAGE signal sequence tagged human BMP1 (23 to 721 amino acids) expressed in CHO-E1 cells pre-incubated for 10 mins before promyostatin peptide substrate addition and measured after 60 mins using 0.5 nM BMP1 by FRET based assay; format: cell-based
[3] = Reduction in mature collagen deposition levels in human cardiac fibroblasts incubated for 24 to 48 hrs by immunostaining based assay; format: functional
In short: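 Methanol fixation at −20° C for 10 min followed a 24 to 48 hr treatment at 37° C of human cardiac fibroblasts in 96-well plates, in ficoll crowding EMEM with 100 μM ascorbic acid and DMSO under 0.3%. Imaging on an Operetta system captured anti-mature collagen I staining, detected with an Alexa647 secondary antibody, alongside Hoechst-stained nuclei. In GraphPad Prism, an IC50 was fitted to collagen intensity normalised to nuclei count per field.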

[4] = Reduction in PICP levels in human cardiac fibroblasts incubated for 24 to 48 hrs by ELISA; format: functional
In short: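 Human cardiac fibroblasts no older than passage 6 were seeded at 10,000 to 15,000 cells per well in 96-well plates and, one day later, exposed for 24 to 48 hr at 37° C to treatment in ficoll crowding EMEM with 100 μM ascorbic acid and less than 0.3% DMSO. IC50 was determined in GraphPad Prism from a log(inhibitor)-response fit of procollagen I C-terminal propeptide levels in the medium, measured by Quidel ELISA and expressed relative to untreated controls.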

[5] = biological target: T2, Tolloid-like protein 2 (Homo sapiens, UniProt Q9Y6L7); test: Inhibition of C-terminal Avi-6x-His epitope tagged and N-terminal human RAGE signal sequence tagged recombinant human TLL2 (26 to 1015 amino acids) expressed in CHOE1A cells incubated for 60 mins with promyostatin peptide substrate by FRET based assay; format: cell-based
T2 sequence (Q9Y6L7 whole entry): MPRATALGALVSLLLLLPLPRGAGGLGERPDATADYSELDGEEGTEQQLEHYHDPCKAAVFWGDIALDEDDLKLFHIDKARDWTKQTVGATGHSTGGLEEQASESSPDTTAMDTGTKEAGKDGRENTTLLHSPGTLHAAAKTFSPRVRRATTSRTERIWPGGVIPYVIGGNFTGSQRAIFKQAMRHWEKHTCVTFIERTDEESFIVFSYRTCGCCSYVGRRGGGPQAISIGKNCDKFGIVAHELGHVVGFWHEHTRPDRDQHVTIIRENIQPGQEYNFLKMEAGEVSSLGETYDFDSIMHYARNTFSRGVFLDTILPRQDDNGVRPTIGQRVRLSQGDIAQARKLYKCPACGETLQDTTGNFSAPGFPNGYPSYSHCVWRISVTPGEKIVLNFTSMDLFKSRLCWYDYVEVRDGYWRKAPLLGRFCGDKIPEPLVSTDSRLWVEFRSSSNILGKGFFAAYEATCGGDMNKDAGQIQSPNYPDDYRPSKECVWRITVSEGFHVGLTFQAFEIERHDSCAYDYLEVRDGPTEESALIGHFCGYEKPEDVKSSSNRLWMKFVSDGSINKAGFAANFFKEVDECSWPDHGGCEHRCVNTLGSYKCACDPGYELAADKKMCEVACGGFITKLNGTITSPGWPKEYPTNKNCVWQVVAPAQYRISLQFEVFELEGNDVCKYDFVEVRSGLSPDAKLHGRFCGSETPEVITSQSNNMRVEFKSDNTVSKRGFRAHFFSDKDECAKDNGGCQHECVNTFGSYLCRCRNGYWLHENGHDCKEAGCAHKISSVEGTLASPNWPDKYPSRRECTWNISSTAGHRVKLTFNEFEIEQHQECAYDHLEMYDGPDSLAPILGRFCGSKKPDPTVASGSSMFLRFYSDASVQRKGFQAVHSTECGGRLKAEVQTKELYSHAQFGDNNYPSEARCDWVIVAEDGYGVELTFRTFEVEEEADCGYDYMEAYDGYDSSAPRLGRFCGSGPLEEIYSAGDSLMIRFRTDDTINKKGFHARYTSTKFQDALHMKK

[6] = biological target: Tolloid-like protein 1 (Homo sapiens, UniProt O43897, I156V/N221S/V284A); test: Inhibition of recombinant human TLL1 I156V/N221S/V284A mutant expressed in CHOE1A cells pre-incubated for 10 mins before promyostatin peptide substrate addition and measured after 60 mins by FRET based assay; format: cell-based
Chain of Tolloid-like protein 1 (O43897 148-1013 I156V/N221S/V284A limits assumed): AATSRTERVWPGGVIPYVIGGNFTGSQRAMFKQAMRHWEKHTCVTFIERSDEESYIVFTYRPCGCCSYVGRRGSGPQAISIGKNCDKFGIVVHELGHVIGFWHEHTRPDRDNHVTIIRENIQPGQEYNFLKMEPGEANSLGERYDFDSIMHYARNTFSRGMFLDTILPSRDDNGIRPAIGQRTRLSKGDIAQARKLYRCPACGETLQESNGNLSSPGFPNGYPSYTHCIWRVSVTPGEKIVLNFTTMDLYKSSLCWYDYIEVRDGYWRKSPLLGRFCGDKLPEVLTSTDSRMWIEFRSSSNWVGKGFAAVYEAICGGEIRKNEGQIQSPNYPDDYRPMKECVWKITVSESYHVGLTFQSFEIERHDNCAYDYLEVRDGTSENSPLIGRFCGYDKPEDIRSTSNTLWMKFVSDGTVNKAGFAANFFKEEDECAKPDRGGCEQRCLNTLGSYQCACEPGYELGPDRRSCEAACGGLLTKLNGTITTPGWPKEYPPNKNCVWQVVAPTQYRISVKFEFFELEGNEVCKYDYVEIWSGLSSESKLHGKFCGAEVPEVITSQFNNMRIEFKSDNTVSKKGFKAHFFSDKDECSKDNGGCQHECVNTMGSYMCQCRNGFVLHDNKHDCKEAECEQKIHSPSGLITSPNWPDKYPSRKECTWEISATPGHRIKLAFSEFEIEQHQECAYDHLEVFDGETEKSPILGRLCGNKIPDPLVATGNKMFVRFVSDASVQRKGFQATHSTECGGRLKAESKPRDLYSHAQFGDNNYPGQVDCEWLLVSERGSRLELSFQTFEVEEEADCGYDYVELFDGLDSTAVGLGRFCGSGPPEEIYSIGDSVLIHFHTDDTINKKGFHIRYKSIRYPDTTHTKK

SMILES	pIC50 [1]	pIC50 [2]	pIC50 [3]	pIC50 [4]	pIC50 [5]	pIC50 [6]
CCCCC[C@@H](C(=O)NCNC(=O)c1ccc(-c2ccc(C(=O)N[C@H](CC(=O)O)C(=O)O)c(OCC)c2)o1)[C@@H](CC)N(O)C=O	> 6.70	> 6.90	> 6.00	> 5.40	> 6.10	> 6.40
CCCCC[C@@H](C(=O)NCNC(=O)c1ccc(-c2cc(OCC(=O)O)cc(C(=O)O)c2)o1)[C@@H](CC)N(O)C=O	> 6.70	> 6.90	> 6.00	> 5.40	> 6.10	> 6.40
CCCCC[C@@H](C(=O)NCNC(=O)c1ccc(-c2cc(OCCC)cc(C(=O)O)c2)o1)[C@@H](CC)N(O)C=O	> 6.70	> 6.90	> 6.00	> 5.40	> 6.10	> 6.40
CCCCC[C@@H](C(=O)NCNC(=O)c1ccc(-c2ccc(C(=O)NCP(=O)(O)O)c(OCC)c2)o1)[C@@H](CC)N(O)C=O	> 6.70	> 6.90	> 6.00	> 5.40	> 6.10	> 6.40
CCCCC[C@H](CN(O)C=O)C(=O)NCNC(=O)c1ccc(-c2ccccc2)o1	> 6.70	> 6.90	> 6.00	> 5.40	> 6.10	> 6.40
CCOc1cc(-c2ccc(C(=O)NCNC(=O)[C@H](CCc3ccc(F)cc3F)[C@@H](CC)N(O)C=O)o2)ccc1C(=O)N[C@@H](CC(=O)O)C(=O)O	> 6.70	> 6.90	> 6.00	> 5.40	> 6.10	> 6.40
CCCCC[C@@H](C(=O)NCNC(=O)c1ccc(-c2ccc(C(=O)N[C@@H](CC(=O)O)C(=O)O)c(OCC)c2)o1)[C@@H](CC)N(O)C=O	> 6.70	> 6.90	> 6.00	> 5.40	> 6.10	> 6.40
CCCCC[C@@H](C(=O)NCNC(=O)c1ccc(-c2ccc(C(=O)N(CC(=O)O)CC(=O)O)c(OCC)c2)o1)[C@@H](CC)N(O)C=O	> 6.70	> 6.90	> 6.00	> 5.40	> 6.10	> 6.40
CCCCC[C@@H](C(=O)NCNC(=O)c1ccc(-c2cc(OCC)cc(C(=O)N[C@@H](CC(=O)O)C(=O)O)c2)o1)[C@@H](CC)N(O)C=O	> 6.70	> 6.90	> 6.00	> 5.40	> 6.10	> 6.40
CCCCC[C@@H](C(=O)NCNC(=O)c1ccc(-c2cc(O)cc(C(=O)O)c2)o1)[C@@H](CC)N(O)C=O	> 6.70	> 6.90	> 6.00	> 5.40	> 6.10	> 6.40
CCCCC[C@@H](C(=O)NCNC(=O)c1ccc(-c2cc(OCC)c(F)c(C(=O)O)c2)o1)[C@@H](CC)N(O)C=O	> 6.70	> 6.90	> 6.00	> 5.40	> 6.10	> 6.40
CCCCC[C@@H](C(=O)NCNC(=O)c1ccc(-c2ccc(CC(=O)N[C@@H](CC(=O)O)C(=O)O)c(OCC)c2)o1)[C@@H](CC)N(O)C=O	> 6.70	> 6.90	> 6.00	> 5.40	> 6.10	> 6.40
CCCCC[C@@H](C(=O)NCNC(=O)c1ccc(-c2cc(OCC)cc(C(=O)O)c2)o1)[C@@H](CC)N(O)C=O	> 6.70	> 6.90	> 6.00	> 5.40	> 6.10	> 6.40
CCCCC[C@@H](C(=O)NCNC(=O)c1ccc(-c2cc(OCC)cc(P(=O)(O)O)c2)o1)[C@@H](CC)N(O)C=O	> 6.70	> 6.90	> 6.00	> 5.40	> 6.10	> 6.40
CCCCC[C@@H](C(=O)NCNC(=O)c1ccc(-c2ccc(P(=O)(O)O)c(OCC)c2)o1)[C@@H](CC)N(O)C=O	> 6.70	> 6.90	> 6.00	> 5.40	> 6.10	> 6.40
CCOc1cc(-c2ccc(C(=O)NCNC(=O)[C@H](CCc3ccccc3)[C@@H](CC)N(O)C=O)o2)ccc1C(=O)N(CC(=O)O)CC(=O)O	> 6.70	> 6.90	> 6.00	> 5.40	> 6.10	> 6.40
CCCCC[C@@H](C(=O)NCNC(=O)c1ccc(-c2cc(OCC)cc(P(=O)(O)OC)c2)o1)[C@@H](CC)N(O)C=O	> 6.70	> 6.90	–	> 5.40	> 6.10	> 6.40
CCCCC[C@@H](C(=O)NCNC(=O)c1ccc(-c2ccc(C(=O)O)c(C(=O)O)c2)o1)[C@@H](CC)N(O)C=O	> 6.70	> 6.90	–	> 5.40	> 6.10	> 6.40
CCCCC[C@H](CN(O)C=O)C(=O)NCNC(=O)c1ccc(-c2cccc([N+](=O)[O-])c2)o1	> 6.70	> 6.90	–	> 5.40	> 6.10	> 6.40
CCCCC[C@@H](C(=O)NCNC(=O)c1ccc(-c2ccc(C(=O)O)cc2)o1)[C@@H](CC)N(O)C=O	> 6.70	> 6.90	–	> 5.40	> 6.10	> 6.40
CCCCC[C@@H](C(=O)NCNC(=O)c1ccc(-c2ccc(C(=O)N(CC(=O)O)CC(=O)O)cc2)o1)[C@@H](CC)N(O)C=O	> 6.70	> 6.90	–	> 5.40	> 6.10	> 6.40
CCCCC[C@@H](C(=O)NCNC(=O)c1ccc(-c2ccc(C(=O)O)c(OCC)c2)o1)[C@@H](CC)N(O)C=O	> 6.70	> 6.90	–	> 5.40	> 6.10	> 6.40

Reference: ChEMBL document CHEMBL4476867, “Hydroxy formamide derivatives and their use” (2016)
